{"source": "patent US20110177136A1", "about": "“METHOD AND PRODUCT” (priority 2008, published 2011)", "key": {"[1]": {"test": "physchem", "conditions": "37 °C, water, thermodynamic from solid"}, "[2]": {"test": "In vitro dissolution test in simulated gastric fluid (USP 24 type II apparatus)", "assay_type": "physicochemical", "conditions": "900 ml SGF pH 2, 37±0.5° C., 100 rpm, equivalent to 200 mg carbamazepine", "description": "SGF was prepared with 2 g/L NaCl and 1 g/L Triton X-100, and acidified to pH 2 with HCl. Bath temperature was maintained at 37±0.5° C. and stirred at 100 rpm. Samples were collected at 15, 30 and 60 min and replaced with a fresh dissolution medium. After centrifugation, filtration through 0.45 μm membrane filter and suitable dilution, concentration of carbamazepine was determined spectrophotometrically at 320 nm."}, "[3]": {"conditions": "24 h"}}, "data": [{"smiles": "NC(=O)N1c2ccccc2C=Cc2ccccc21", "note": "[Carbamazepine, carbamazepine]", "values": [{"measurement": "solubility at 24 h", "setting": "[1]", "result": 290, "unit": "µg/mL"}, {"measurement": "Percentage of Carbamazepine released", "setting": "[2]; 15 min, listed as pure carbamazepine", "result": 43.48, "unit": "%"}, {"measurement": "Percentage of Carbamazepine released", "setting": "[2]; 15 min, listed as pure drug", "result": "43.48 ± 2.23", "unit": "%"}, {"measurement": "Percentage of Carbamazepine released", "setting": "[2]; 30 min, listed as pure carbamazepine", "result": 59.29, "unit": "%"}, {"measurement": "Percentage of Carbamazepine released", "setting": "[2]; 30 min, listed as pure drug", "result": "59.29 ± 2.21", "unit": "%"}, {"measurement": "Percentage of Carbamazepine released", "setting": "[2]; 60 min, listed as Pure carbamazepine", "result": 69.11, "unit": "%"}, {"measurement": "Percentage of Carbamazepine released", "setting": "[2]; 60 min, listed as pure drug", "result": "69.11 ± 2.24", "unit": "%"}, {"measurement": "Saturation Solubility", "setting": "[3]", "result": 290, "unit": "µg/mL"}]}]}
